Experimental data taken from patent US20050019746A1, “Apoptosis-related kinase/GPCRs” (EiRx Therapeutics Limited, priority 2003, published 2005).

Legend:
Type in all cases: cell-based, human
DU145 cells = assay: 10-14 day Clonagenicity Assay (MTT), DU145; settings: for percentage survival relative to the missense, n = 1: independent experiment n = 1, dilution point of maximum toxicity; for percentage survival relative to the missense, n = 2: independent experiment n = 2, dilution point of maximum toxicity; for percentage survival relative to the missense, n = 3: independent experiment n = 3, dilution point of maximum toxicity
Excerpt: (§1) The Clonagenicity Assay represents a Cell Viability Screen that allows assessment of a cytotoxic insult at a variety of seed densities of cancer cell lines over an extended period of logarithmic growth, such that the definitive effect of the test substance can be accurately quantified. In this instance, the ‘cytotoxic insult’ to be tested involves the transfection of siRNA Oligomers to knockdown the expression of novel target Kinases and GPCRs as outlined previously. Cell number is quantified 10-14 days post siRNA transfection by MTT conversion as described in detail in Example 6.
(§2) The Clonagenicity Assay is optimised for each cell line examined with respect to seed number. The seed number varies for each cell line and accounts for the differences in cell size, growth rate and sensitivity to transfection-induced toxicity for each cell line pursued. Cells lines given as models for this example include HCT15, MCF7, A549, SKOV3, DU145, U251, PC3, A498 and HeLa. The siRNA oligo to Survivin serves as a positive control for toxicity in this assay and the missense control oligomer acts as a negative control as described in detail in Examples 5 and 6. The c-Raf, BCL2 and PI3K siRNA oligomers serve as additional controls as previously mentioned. The Clonagenicity assay is performed as outlined below.
(§3) Cells are seeded into a 96-well plate as described below and allowed to adhere overnight at 37° C. in a humidified atmosphere containing 5% CO2 in air. Wells are seeded with an appropriate cell number (cell line dependent) in Column 1 of the 96 well plates and this cell suspension is diluted 1 in 2 across the 96 well plates from Column 1 through to 6 (represented on the x-axis in results). Cells are next transfected with siRNA Oligomers, at a concentration of 2 μg/ml, against the genes of interest. Transfections continue for 4 hrs after which the transfection solution is removed and cells are refed with fresh medium and allow to incubate overnight. An additional media change@24 hrs post transfection is made to minimise toxicity of the transfection reagent. Cells are subsequently incubated for a 10-14 Day period post transfection at a 37° C. incubation as described above. Medium is renewed weekly following which MTT quantification is performed as described in Example 5.
(§4) To be considered cytotoxic, the siRNA Oligo against the gene target must induce a decreased viability in a cell line across at least 2 seed densities in the clonagenicity assay, such that a significant difference between the target gene and MS is observed i.e. no crossing of the Standard Error bars is detected. The average percentage viability, relative to missense, is recorded for the dilution point at which Maximum Toxicity is induced is recorded in Table 13.
(§5) Table 13 Clonagenicity Assay—This table gives the average percentage survival of the indicated cell lines relative to the missense in a clonagenicity assay, over 3 independent experiments. As an internal reference, the known survival gene ‘Survivin’, BCL2, c-Raf and PI3KR1 was also targeted by siRNA. When no Cytotoxic response is detected ‘-’ is recorded.

U251 cells = assay: 10-14 day Clonagenicity Assay (MTT), U251; settings: U251, clonagenicity assay, dilution point of maximum toxicity; for percentage survival relative to the missense, n = 1: independent experiment n = 1; for percentage survival relative to the missense, n = 2: independent experiment n = 2; for percentage survival relative to the missense, n = 3: independent experiment n = 3
Excerpt: as §1, §2, §3
Note seed density decreases from 3.5 to 0.1×10^3 cells on the x-axis and the y-axis represents cell number as quantified by MTT conversion, 10-14 days post transfection. This decrease is substantially greater that with the apoptosis gene, Survivin. […] Note seed density decreases from 3.5 to 0.1×10^3 cells on the x-axis and the y-axis represents cell number as quantified by MTT conversion, 10-14 days post transfection.
as §4, §5

PC3 cells = assay: Cell Migration Assay (Chemicon ECM550, Boyden Chamber); settings: 48 hours post siRNA transfection, 24-hour migration, compared to missense and UPA controls
Protocol: Cells are seeded into a 6-well plate and allowed to adhere overnight at 37° C. in a humidified atmosphere containing 5% CO2 in air. Cells are next transfected with siRNA oligonucleotides, at a concentration of 2 μg/ml, against the genes of interest, as described in detail in Example 5. Transfections are continued for 4 hrs after which the transfection solution is removed and cells are refed with fresh medium and allowed incubate overnight. Transfected cells are next harvested for seeding into migration assay as described below.
The Chemicon Cell Migration Assay (ECM550) is used to quantify the number of PC3 cells that successfully migrate across a Boyden Chamber towards a chemoattractant over a 24-hour incubation period. Assessment of PC3 cell migration is performed routinely 48 hours post siRNA Transfection. The effect of reducing the expression of genes of interest is compared to that of a missense control oligomer and to the influence of UPA knockdown, which is reported in the literature to decrease PC3 cell migration. The Migration Assay is performed as per manufacturers inductions. Results are illustrated in FIGS. 39 to 41.
Cells were plated and transfected with the indicated siRNA as described above. Migration of PC3 cells was tracked using a fluorescent dye. Consequently increases in fluorescent units correlates positively with increased migration.

HCT15 cells = assay: Anchorage Independence/Soft Agar Assay, HCT15; parameters: PERCENTAGE SURVIVAL RELATIVE TO MS, HCT15, n = 2: tested at 2 µg; PERCENTAGE SURVIVAL RELATIVE TO MS, HCT15, n = 1: tested at 2 µg siRNA; settings: soft agar; for PERCENTAGE SURVIVAL RELATIVE TO MS, HCT15, n = 1: experiment n = 1; for PERCENTAGE SURVIVAL RELATIVE TO MS, HCT15, n = 2: experiment n = 2
Procedure, shortened: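 Cells were transfected for 4 h with 2 μg siRNA against target genes, then seeded at 5×10^4 cells/well in 0.05% agar/medium and grown 12/14 days at 37 °C, 5% CO2. Crystal violet-stained colonies were counted at 4× and morphology assessed; survival expressed relative to missense siRNA control.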

Substance	percentage survival relative to the missense, n = 1 (DU145 cells)	percentage survival relative to the missense, n = 2 (DU145 cells)	percentage survival relative to the missense, n = 1 (U251 cells)	percentage survival relative to the missense, n = 2 (U251 cells)	percentage survival relative to the missense, n = 3 (U251 cells)	percentage survival relative to the missense, n = 3 (DU145 cells)	migration of PC3 cells (PC3 cells)	PERCENTAGE SURVIVAL RELATIVE TO MS, HCT15, n = 1 (HCT15 cells)	PERCENTAGE SURVIVAL RELATIVE TO MS, HCT15, n = 2 (HCT15 cells)
siRNA ROCK: siRNA duplex, sense UACAUGCCUGGUGGAGAUCtt, antisense GAUCUCCACCAGGCAUGUAtt; same in Tables 9 and 11 (sense UACAUGCCUGGUGGAGAUCTT; antisense GAUCUCCACCAGGCAUGUATT; chemistry not given here)	45.6%	44.4%	13.8%	58.2%	19.8%				
siRNA P14KB: sense GCUACGGAAGCUGAUCCUCtt, antisense GAGGAUCAGCUUCCGUAGCtt (sense GCUACGGAAGCUGAUCCUCTT; antisense GAGGAUCAGCUUCCGUAGCTT; chemistry not given here)			12.3%	65%	28.3%	26.1%	no influence on the migration		
siRNA Survivin: positive control siRNA, sense GAACUGGCCCUUCUUGGAGtt, antisense CUCCAAGAAGGGCCAGUUCtt (sense GAACUGGCCCUUCUUGGAGTT; antisense CUCCAAGAAGGGCCAGUUCTT; chemistry not given here) [reference compound]	102%	61.8%	45.9%	64.6%	76.4%	91%		71.5%	48.6%
siRNA NTKL: siRNA duplex, sense UGUGGAGCUGAUGAAGCACtt, antisense GUGCUUCAUCAGCUCCACAtt; same in Tables 9 and 11 (sense UGUGGAGCUGAUGAAGCACTT; antisense GUGCUUCAUCAGCUCCACATT; chemistry not given here)	27.8%	35.1%	9.5%	20.9%	17.1%	25.4%			
siRNA PSKH1: sense GAACCUGCACCGCUCCAUAtt, antisense UAUGGAGCGGUGCAGGUUCtt (sense GAACCUGCACCGCUCCAUATT; antisense UAUGGAGCGGUGCAGGUUCTT; chemistry not given here)			60.5%		56.9%		increases the ability of cancer cells to migrate	37.2%	41%
siRNA MKNK: sense UACAUGGCCCCUGAGGUAGtt, antisense CUACCUCAGGGGCCAUGUAtt (sense UACAUGGCCCCUGAGGUAGTT; antisense CUACCUCAGGGGCCAUGUATT; chemistry not given here)			33.6%	59.5%	69%	33.9%	inhibition of migration	66.3%	90.9%
siRNA PCTAIRE: sense GUCAGUGCCCACAAAGACUtt, antisense AGUCUUUGUGGGCACUGACtt (sense GUCAGUGCCCACAAAGACUTT; antisense AGUCUUUGUGGGCACUGACTT; chemistry not given here)			24.2%	42.7%	1.6%		inhibition of migration		
siRNA FLT4: sense GUACGGCAACCUCUCCAACtt, antisense GUUGGAGAGGUUGCCGUACtt (sense GUACGGCAACCUCUCCAACTT; antisense GUUGGAGAGGUUGCCGUACTT; chemistry not given here)		52.7%		63%	30.9%	32.6%	inhibition of migration		
siRNA EKI: siRNA duplex, sense GCACUGGAUCCAAAGCAUGtt, antisense CAUGCUUUGGAUCCAGUGCtt; same in Tables 9 and 11 (sense GCACUGGAUCCAAAGCAUGTT; antisense CAUGCUUUGGAUCCAGUGCTT; chemistry not given here)		62.2%	62.3%						
siRNA MAPKK5: sense GAGGACAGGUUAAGCUGUGtt, antisense CACAGCUUAACCUGUCCUCtt (sense GAGGACAGGUUAAGCUGUGTT; antisense CACAGCUUAACCUGUCCUCTT; chemistry not given here)			44.8%	51.4%	12.4%	13.6%	no influence on the migration		
siRNA MAK: sense GAAGCCAAGCAUGGGUGUUtt, antisense AACACCCAUGCUUGGCUUCtt (sense GAAGCCAAGCAUGGGUGUUTT; antisense AACACCCAUGCUUGGCUUCTT; chemistry not given here)		57.2%	11.5%	49.1%	58.7%	55.4%	increases the ability of cancer cells to migrate		
siRNA MPSK1: sense GGGUUAUGCCCACAGAGACtt, antisense GUCUCUGUGGGCAUAACCCtt (sense GGGUUAUGCCCACAGAGACTT; antisense GUCUCUGUGGGCAUAACCCTT; chemistry not given here)							inhibition of migration	42.3%	62.2%
